Experimental data: patent publication US9540366B2, “Ring-fused heterocyclic compound” (Kyowa Hakko Kirin Co., Ltd., priority 2012, dated 2017)
Structures can show the parent of a compound that is named as a salt. Where two headings read alike, the source gives them in different places.

Target: T1, human Cav3.2 T-type Ca2+ channel (Homo sapiens, UniProt O95180)
T1 construct: expressed in transfected cells; host or cells: KJMGER8 cells (Namalwa cell-derived cell line)
Experiment: Inhibitory effect for intracellular calcium response via Cav3.2 T-type Ca2+ channels (FLIPR Calcium 3 Assay Kit)
Assay type: cell-based

[1] = human Cav3.2-expressing KJMGER8 cells (Namalwa-derived), calcium response induced by 5 mmol/L CaCl2, 3 μmol/L mibefradil as reference, read-out: IC50 for the human Cav3.2 T-type Ca2+ current

T1 sequence (O95180 whole entry): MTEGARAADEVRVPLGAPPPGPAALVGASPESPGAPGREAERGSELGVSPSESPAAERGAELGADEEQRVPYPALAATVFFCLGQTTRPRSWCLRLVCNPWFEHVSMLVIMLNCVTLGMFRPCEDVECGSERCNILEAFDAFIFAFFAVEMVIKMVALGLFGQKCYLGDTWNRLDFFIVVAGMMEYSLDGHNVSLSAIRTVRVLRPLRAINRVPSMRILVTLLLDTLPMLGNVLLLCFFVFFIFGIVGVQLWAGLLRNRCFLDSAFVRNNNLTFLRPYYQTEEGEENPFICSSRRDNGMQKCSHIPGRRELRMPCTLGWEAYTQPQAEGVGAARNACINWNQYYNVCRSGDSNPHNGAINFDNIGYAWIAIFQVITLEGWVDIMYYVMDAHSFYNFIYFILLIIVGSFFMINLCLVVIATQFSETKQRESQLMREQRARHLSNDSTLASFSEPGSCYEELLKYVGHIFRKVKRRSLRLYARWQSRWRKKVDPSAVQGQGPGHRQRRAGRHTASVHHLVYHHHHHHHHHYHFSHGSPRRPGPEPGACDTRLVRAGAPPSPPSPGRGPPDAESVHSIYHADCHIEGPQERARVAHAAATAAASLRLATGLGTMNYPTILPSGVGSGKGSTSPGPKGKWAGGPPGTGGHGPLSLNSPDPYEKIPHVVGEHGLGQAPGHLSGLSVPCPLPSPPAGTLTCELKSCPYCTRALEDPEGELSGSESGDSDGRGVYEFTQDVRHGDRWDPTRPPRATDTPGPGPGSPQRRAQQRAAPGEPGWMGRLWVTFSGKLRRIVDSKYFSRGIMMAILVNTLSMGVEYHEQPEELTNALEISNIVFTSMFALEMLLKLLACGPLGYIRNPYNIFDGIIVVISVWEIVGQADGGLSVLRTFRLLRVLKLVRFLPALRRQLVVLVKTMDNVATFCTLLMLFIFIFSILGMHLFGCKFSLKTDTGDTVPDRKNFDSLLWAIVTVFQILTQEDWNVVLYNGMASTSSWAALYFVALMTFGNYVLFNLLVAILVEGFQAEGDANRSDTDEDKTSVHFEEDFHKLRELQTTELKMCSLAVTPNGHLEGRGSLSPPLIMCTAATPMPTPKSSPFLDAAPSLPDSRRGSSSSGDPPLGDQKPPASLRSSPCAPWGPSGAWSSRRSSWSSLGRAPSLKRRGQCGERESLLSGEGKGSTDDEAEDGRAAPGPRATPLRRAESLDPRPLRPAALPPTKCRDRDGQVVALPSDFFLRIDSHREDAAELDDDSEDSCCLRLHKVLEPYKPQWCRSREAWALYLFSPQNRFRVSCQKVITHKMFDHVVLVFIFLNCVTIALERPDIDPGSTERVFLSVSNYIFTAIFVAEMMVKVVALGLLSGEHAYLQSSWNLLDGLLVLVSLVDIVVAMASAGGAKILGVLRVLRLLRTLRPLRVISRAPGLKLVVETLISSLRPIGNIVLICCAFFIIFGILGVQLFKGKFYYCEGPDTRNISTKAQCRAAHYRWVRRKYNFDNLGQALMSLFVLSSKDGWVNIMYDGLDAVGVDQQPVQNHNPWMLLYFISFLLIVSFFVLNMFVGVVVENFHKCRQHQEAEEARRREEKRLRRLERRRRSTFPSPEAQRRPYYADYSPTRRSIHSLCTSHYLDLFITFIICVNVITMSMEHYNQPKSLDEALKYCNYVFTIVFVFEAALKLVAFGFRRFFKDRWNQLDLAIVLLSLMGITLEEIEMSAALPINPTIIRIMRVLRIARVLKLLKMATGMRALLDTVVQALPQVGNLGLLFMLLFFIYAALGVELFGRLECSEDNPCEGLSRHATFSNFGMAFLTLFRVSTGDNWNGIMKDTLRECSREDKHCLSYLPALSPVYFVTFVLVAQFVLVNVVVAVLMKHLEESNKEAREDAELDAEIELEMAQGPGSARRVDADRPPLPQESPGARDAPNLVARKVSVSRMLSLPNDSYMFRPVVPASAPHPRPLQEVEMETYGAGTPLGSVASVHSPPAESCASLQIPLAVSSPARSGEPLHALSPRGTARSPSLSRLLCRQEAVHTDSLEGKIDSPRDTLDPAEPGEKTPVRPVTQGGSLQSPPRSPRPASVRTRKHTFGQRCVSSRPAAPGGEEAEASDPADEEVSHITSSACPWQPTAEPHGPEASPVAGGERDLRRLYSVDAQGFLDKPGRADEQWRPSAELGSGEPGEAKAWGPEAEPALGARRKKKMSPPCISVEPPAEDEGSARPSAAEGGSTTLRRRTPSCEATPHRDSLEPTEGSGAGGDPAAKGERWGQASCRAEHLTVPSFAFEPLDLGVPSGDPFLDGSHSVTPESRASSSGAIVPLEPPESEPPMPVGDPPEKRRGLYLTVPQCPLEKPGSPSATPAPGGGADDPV

Row | Structure (SMILES) | IC50 [nM] | IC50 [1] [nM]
1 | N#CC1(NC(=O)c2cc(Cl)n3c(CC4CCC(F)(F)CC4)c(C(F)(F)F)nc3c2)CC1 [Compound 175, 5-Chloro-N-(1-cyanocyclopropyl)-3-[(4,4-difluorocyclohexyl)methyl]-2-(trifluoromethyl)imidazo[1,2-a]pyridine-7-carboxamide] | ≤ 100 | 
2 | O=C(NCCN1CCCCC1)c1cc(Cl)n2c(CC3CCC(F)(F)CC3)c(C(F)(F)F)nc2c1 [Compound 99, 5-Chloro-3-[(4,4-difluorocyclohexyl)methyl]-N-[2-(piperidin-1-yl)ethyl]-2-(trifluoromethyl)imidazo[1,2-a]pyridine-7-carboxamide] | ≤ 100 | 
3 | N#Cc1cc(C(=O)NCC2COCCO2)cc2nc(C(F)(F)F)c(CC3CCC(F)(F)CC3)n12 (stereo not shown) [Compound 59, N-[(1,4-Dioxan-2-yl)methyl]-5-cyano-3-[(4,4-difluorocyclohexyl)methyl]-2-(trifluoromethyl)imidazo[1,2-a]pyridine-7-carboxamide] |  | ≤ 100
4 | N#Cc1cc(C(=O)N2CCOC2=O)cc2nc(C(F)(F)F)c(CC3CCC(F)(F)CC3)n12 [Compound 150, 3-[(4,4-Difluorocyclohexyl)methyl]-7-(2-oxoxazolidine-3-carbonyl)-2-(trifluoromethyl)imidazo[1,2-a]pyridine-5-carbonitrile] |  | ≤ 100
5 | CC(F)(F)c1nc2cc(C(=O)Nc3ccccc3)c(Cl)cn2c1CC1CCC(F)(F)CC1 [Compound 5, 6-Chloro-3-[(4,4-difluorocyclohexyl)methyl]-2-(1,1-difluoroethyl)-N-phenylimidazo[1,2-a]pyridine-7-carboxamide] | ≤ 100 | 
6 | Cc1cc(C(=O)NC(C)(C)C)cc2nc(C(F)(F)F)c(CC3CCC(F)(F)CC3)n12 [Compound 217, N-tert-Butyl-3-[(4,4-difluorocyclohexyl)methyl]-5-methyl-2-(trifluoromethyl)imidazo[1,2-a]pyridine-7-carboxamide] | ≤ 100 | 
7 | N#Cc1cc(C(=O)NC2(C3CCOCC3)CC2)cc2nc(C(F)(F)F)c(CC3CCC(F)(F)CC3)n12 [Compound 66, 5-Cyano-3-[(4,4-difluorocyclohexyl)methyl]-N-[1-(tetrahydro-2H-pyran-4-yl)cyclopropyl]-2-(trifluoromethyl)imidazo[1,2-a]pyridine-7-carboxamide] | ≤ 100 | 
8 | O=C(CNC(=O)c1cc(Cl)n2c(CC3CCC(F)(F)CC3)c(C(F)(F)F)nc2c1)NC1CCOC1 (stereo not shown) [Compound 131, 5-Chloro-3-[(4,4-difluorocyclohexyl)methyl]-N-[2-oxo-2-(tetrahydrofuran-3-ylamino)ethyl]-2-(trifluoromethyl)imidazo[1,2-a]pyridine-7-carboxamide] | ≤ 100 | 
9 | CC(C)(C)NC(=O)c1cc2nc(C(F)(F)F)c(CC3CCC(F)(F)CC3)n2c(Cl)c1Cl [Compound 227, N-tert-Butyl-5,6-dichloro-3-[(4,4-difluorocyclohexyl)methyl]-2-(trifluoromethyl)imidazo[1,2-a]pyridine-7-carboxamide] | ≤ 100 | 
10 | O=C(NC1CCC(F)(F)CC1)c1cc2nc(C3CC3)c(CC3CCC(F)(F)CC3)n2cc1Cl [Compound 14, 6-Chloro-2-cyclopropyl-N-(4,4-difluorocyclohexyl)-3-[(4,4-difluorocyclohexyl)methyl]imidazo[1,2-a]pyridine-7-carboxamide] | ≤ 100 | 
11 | CC(F)(F)c1nc2cc(C(=O)NC3CCOCC3)cc(C#N)n2c1Cc1ccc(Cl)cc1 [Compound 221, 3-(4-Chlorobenzyl)-5-cyano-2-(1,1-difluoroethyl)-N-(tetrahydro-2H-pyran-4-yl)imidazo[1,2-a]pyridine-7-carboxamide] | ≤ 100 | 
12 | Cc1c(C(=O)NC2CCOCC2)cc(C)n2c(CC3CCC(F)(F)CC3)c(C(F)(F)F)nc12 [Compound 166, 3-[(4,4-Difluorocyclohexyl)methyl]-5,8-dimethyl-N-(tetrahydro-2H-pyran-4-yl)-2-(trifluoromethyl)imidazo[1,2-a]pyridine-7-carboxamide] | ≤ 100 | 
13 | CC(C)(NC(=O)c1cc(C#N)n2c(CC3CCC(F)(F)CC3)c(C(F)(F)F)nc2c1)C1CCOCC1 [Compound 63, 5-Cyano-3-[(4,4-difluorocyclohexyl)methyl]-N-[2-(tetrahydro-2H-pyran-4-yl)propan-2-yl]-2-(trifluoromethyl)imidazo[1,2-a]pyridine-7-carboxamide] | ≤ 100 | 
14 | Cc1cc(C(=O)NC2CCOCC2)cc2nc(C(C)(F)F)c(Cc3ccc(Cl)cc3)n12 [Compound 214, 3-(4-Chlorobenzyl)-2-(1,1-difluoroethyl)-5-methyl-N-(tetrahydro-2H-pyran-4-yl)imidazo[1,2-a]pyridine-7-carboxamide] | ≤ 100 | 
15 | N#Cc1cc(C(=O)NC(=O)C2CC2)cc2nc(C(F)(F)F)c(CC3CCC(F)(F)CC3)n12 [Compound 202, 5-Cyano-N-(cyclopropanecarbonyl)-3-[(4,4-difluorocyclohexyl)methyl]-2-(trifluoromethyl)imidazo[1,2-a]pyridine-7-carboxamide] | ≤ 100 | 
16 | C[C@H](NC(=O)c1cc(C#N)n2c(CC3CCC(F)(F)CC3)c(C(F)(F)F)nc2c1)C(=O)N(C)C [Compound 187, (S)-5-Cyano-3-[(4,4-difluorocyclohexyl)methyl]-N-[1-(dimethylamino)-1-oxopropan-2-yl]-2-(trifluoromethyl)imidazo[1,2-a]pyridine-7-carboxamide] | ≤ 100 | 

Row | Structure (SMILES) | IC50 [nM] | IC50 [1] [nM]
17 | CC(=O)c1nc2cc(C(=O)Nc3ccccc3)cc(C)n2c1CC1CCC(F)(F)CC1 [Compound 19, 2-Acetyl-3-[(4,4-difluorocyclohexyl)methyl]-5-methyl-N-phenylimidazo[1,2-a]pyridine-7-carboxamide] | ≤ 100 | 
18 | CCOC(=O)C1(NC(=O)c2cc(C#N)n3c(CC4CCC(F)(F)CC4)c(C(F)(F)F)nc3c2)CC1 [Compound 161, Ethyl 1-{5-cyano-3-[(4,4-difluorocyclohexyl)methyl]-2-(trifluoromethyl)imidazo[1,2-a]pyridine-7-carboxamide}cyclopropanecarboxylate] | ≤ 100 | 
19 | Cc1cc(CNC(=O)c2cc(Cl)n3c(CC4CCC(F)(F)CC4)c(C(F)(F)F)nc3c2)[nH]n1 [Compound 152, 5-Chloro-3-[(4,4-difluorocyclohexyl)methyl]-N-[(3-methyl-1H-pyrazol-5-yl)methyl]-2-(trifluoromethyl)imidazo[1,2-a]pyridine-7-carboxamide] |  | ≤ 100
20 | CC(NC(=O)c1cc(Cl)n2c(CC3CCC(F)(F)CC3)c(C(F)(F)F)nc2c1)C(=O)NC1CCOCC1 (stereo not shown) [Compound 128, 5-Chloro-3-[(4,4-difluorocyclohexyl)methyl]-N-[1-oxo-1-(tetrahydro-2H-pyran-4-ylamino)propan-2-yl]-2-(trifluoromethyl)imidazo[1,2-a]pyridine-7-carboxamide] | ≤ 100 | 
21 | Cc1cc(C(=O)NC2CCOCC2)cc2nc(C(F)(F)F)c(Cc3ccccc3)n12 [Compound 206, 3-Benzyl-5-methyl-N-(tetrahydro-2H-pyran-4-yl)-2-(trifluoromethyl)imidazo[1,2-a]pyridine-7-carboxamide] | ≤ 100 | 
22 | O=C(NNC(=O)C1CC1)c1cc(Cl)n2c(CC3CCC(F)(F)CC3)c(C(F)(F)F)nc2c1 [Compound 142, 5-Chloro-N′-(cyclopropanecarbonyl)-3-[(4,4-difluorocyclohexyl)methyl]-2-(trifluoromethyl)imidazo[1,2-a]pyridine-7-carbohydrazide] | ≤ 100 | 
23 | CC(C)(C)C(=O)CNC(=O)c1cc(C#N)n2c(CC3CCC(F)(F)CC3)c(C(F)(F)F)nc2c1 [Compound 160, 5-Cyano-3-[(4,4-difluorocyclohexyl)methyl]-N-(3,3-dimethyl-2-oxobutyl)-2-(trifluoromethyl)imidazo[1,2-a]pyridine-7-carboxamide] | ≤ 100 | 
24 | Cc1cc(CC(=O)NOC2CCOCC2)cc2nc(C(F)(F)F)c(CC3CCC(F)(F)CC3)n12 [Compound 84, 2-{3-[(4,4-Difluorocyclohexyl)methyl]-5-methyl-2-(trifluoromethyl)imidazo[1,2-a]pyridin-7-yl}-N-(tetrahydro-2H-pyran-4-yloxy)acetamide] | ≤ 100 | 
25 | Cc1cc(C(=O)NC2(C3CCOCC3)CC2)cc2nc(C(F)(F)F)c(CC3CCC(F)(F)CC3)n12 [Compound 75, 3-[(4,4-Difluorocyclohexyl)methyl]-5-methyl-N-[1-(tetrahydro-2H-pyran-4-yl)cyclopropyl]-2-(trifluoromethyl)imidazo[1,2-a]pyridine-7-carboxamide] |  | ≤ 100
26 | N#Cc1cc(C(=O)NC2CCOC2)cc2nc(C(F)(F)F)c(CC3CCC(F)(F)CC3)n12 (stereo not shown) [Compound 62] | ≤ 100 | 
27 | CC(C)(CNC(=O)c1cc(C#N)n2c(CC3CCC(F)(F)CC3)c(C(F)(F)F)nc2c1)COC=O [Compound 157, 3-(5-Cyano-3-[(4,4-difluorocyclohexyl)methyl]-2-(trifluoromethyl)imidazo[1,2-a]pyridine-7-carboxamide)-2,2-dimethylpropyl formate] | ≤ 100 | 
28 | CC(C)(CO)CNC(=O)c1cc(C#N)n2c(CC3CCC(F)(F)CC3)c(C(F)(F)F)nc2c1 [Compound 155, 5-Cyano-3-[(4,4-difluorocyclohexyl)methyl]-N-(3-hydroxy-2,2-dimethylpropyl)-2-(trifluoromethyl)imidazo[1,2-a]pyridine-7-carboxamide] | ≤ 100 | 
29 | CC(C)(O)CNC(=O)c1cc2nc(C(C)(F)F)c(CC3CCC(F)(F)CC3)n2cc1Cl [Compound 26, 6-Chloro-3-[(4,4-difluorocyclohexyl)methyl]-2-(1,1-difluoroethyl)-N-(2-hydroxy-2-methylpropyl)imidazo[1,2-a]pyridine-7-carboxamide] | ≤ 100 | 
30 | Cc1cc(Cc2nc3ccccc3[nH]2)cc2nc(C(F)(F)F)c(CC3CCC(F)(F)CC3)n12 [Compound 87, 2-({3-[(4,4-Difluorocyclohexyl)methyl]-5-methyl-2-(trifluoromethyl)imidazo[1,2-a]pyridin-7-yl}methyl)-1H-benzo[d]imidazol] |  | ≤ 100
31 | N#Cc1cc(C(=O)NCC2(O)CC2)cc2nc(C(F)(F)F)c(CC3CCC(F)(F)CC3)n12 [Compound 69, 5-Cyano-3-[(4,4-difluorocyclohexyl)methyl]-N-[(1-hydroxycyclopropyl)methyl]-2-(trifluoromethyl)imidazo[1,2-a]pyridine-7-carboxamide] | ≤ 100 | 
